Read-outs that look alike come from different tables or passages of the source. Values belong to the compound of their own block, whether it stands above or below them.
What was measured:
HCoV-229E = assay: Anti-human coronavirus 229E activity in MRC5 cells; assay type: cell-based; conditions: 72 h, viral cytopathic effect
CypB = target: T1, CypB (Homo sapiens, UniProt P23284); assay: biochemical; assay type: biochemical
T1 construct: hexahistidine tag (His-Tag) (C); made in house; host or cells: E. coli C41(DE3)
Protocol: (§1) CypA and CypB proteins carrying a hexahistidine tag (His-Tag) at their carboxy terminus were expressed in E. coli and purified. Briefly, cultures of C41(DE3) cells were grown at 37 °C for 1 h until the culture reached an OD of 0.6 at 600 nm and then induced with 1 mM isopropyl-β-D-thiogalactopyranoside for 4 h at 37 °C (CypA) or overnight at 22 °C (CypB). Cell pellets were resuspended in a lysis buffer 20 mM NaH2PO4 pH 7.8, 300 mM NaCl, 7 mM β-mercaptoethanol, 1 mg ml^−1 lysozyme, 0.1 U μl^−1 desoxyribonuclease and complete protease inhibitor tablets (Roche Diagnostics Corporation, Indianapolis, Indiana). […] The bound protein was eluted in 1 ml fractions with a buffer composed of 20 mM NaH2PO4 pH 7.8, 300 mM NaCl, 250 mM imidazole, 7 mM β-mercaptoethanol and 10% glycerol, monitored by the Bradford colorimetric assay. The purity of each cyclophilin was determined by Coomassie-stained SDS–PAGE analysis.

CypD = CypD (Homo sapiens, UniProt P30405, K175I); assay: PPIase enzyme assay (chymotrypsin-coupled), CypD; conditions: for LE (ligand efficiency): Supplementary Figure 1, NMR fragment hits
in vitro [1] = conditions: human
in vitro [2] = conditions: human; remark: listed apart in the source
HCV genotype 1b replicon = assay: microbe, parasite or virus in culture; assay type: cell-based, hepatitis C virus
CypA = target: T2, CypA (Homo sapiens, UniProt P62937); assay: PPIase enzyme assay (chymotrypsin-coupled), CypA; assay type: biochemical; conditions: 20 °C, mean±s.d.
T2 construct: hexahistidine tag (His-Tag) (C); made in house; host or cells: E. coli C41(DE3)
Protocol: as §1

[3] = target: cyclophilin PPIase activity; assay: PPIase enzyme assay, cyclophilin not specified; assay type: biochemical, human; conditions: compounds lacking the ester function; read-out: cyclophilin inhibition IC50
Huh7 cells = assay: Cellular toxicity in Huh7 replicon cells; conditions: read-out: HCV genotype 1b replicon CC50; Huh7 cells
MRC5 cells = assay: Cellular toxicity in MRC5 cells; conditions: read-out: MRC5 cells CC50; MRC5 cells
HIV-IIIb = assay: Anti-HIV activity in MT4 cells; assay type: cell-based, human immunodeficiency virus; conditions: 5 days
MT4 cells = assay: Cytotoxicity in uninfected MT4 cells; conditions: read-out: MT4 cells CC50
calcineurin = assay: Calcineurin phosphatase assay; assay type: biochemical; conditions: binary complex with CypA, 1:1 molar ratio
Protocol: The inhibition of calcineurin phosphatase activity was measured by measuring the dephosphorylation of p-nitrophenyl phosphate (R&D Systems, Minneapolis, USA), according to the manufacturer’s instructions. […] After p-nitrophenyl phosphate addition, the reaction was run for 35 min at 37 °C. The reaction was terminated by addition of BIOMOL green reagent and OD was measured at 630 nm. The results are the means of three independent experiments performed in duplicate. They are presented as the percentage of calcineurin activity relative to that in the inhibitor-free control.

mPTP = test system: mPTP; design: method as in Panel M, Ahmed-Belkacem A, et al., manuscript in preparation; conditions: as a result of CypD inhibition; ref Panel M, Ahmed-Belkacem A, et al., manuscript in preparation; cited from earlier work
[4] = test system: IL-2 production in Jurkat cells; assay: Inhibition of IL-2 production in Jurkat cells; assay type: cell-based; conditions: stimulated Jurkat cells
[5] = Cellular toxicity in Huh7 replicon cells; conditions: human, Huh7 cells with HCV genotype 1b replicon
[6] = Cellular toxicity in MRC5 cells; conditions: human, MRC-5 cells
[7] = Hepatitis C virus, Huh-7, 72 h, read-out: HCV genotype 1b replicon EC50
[8] = PPIase enzyme assay, 20 °C, mean±s.d., read-out: CypB IC50
[9] = read-out: CypD IC50, PPIase enzyme assay, 20 °C, mean±s.d.
[10] = Huh7 cells, 3 days, HCV RNA, read-out: HCV genotype 1b replicon EC50
[11] = wild-type genotype 1b replicon, comparison with mutated replicons (Table 3), read-out: EC50 HCV (WT) subgenomic replicon

T2 sequence (P62937 whole entry): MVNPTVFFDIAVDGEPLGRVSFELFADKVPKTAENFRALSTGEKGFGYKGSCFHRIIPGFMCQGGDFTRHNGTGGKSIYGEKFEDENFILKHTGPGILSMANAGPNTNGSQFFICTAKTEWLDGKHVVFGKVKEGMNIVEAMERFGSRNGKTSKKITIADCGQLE
T1 sequence (P23284 34-216): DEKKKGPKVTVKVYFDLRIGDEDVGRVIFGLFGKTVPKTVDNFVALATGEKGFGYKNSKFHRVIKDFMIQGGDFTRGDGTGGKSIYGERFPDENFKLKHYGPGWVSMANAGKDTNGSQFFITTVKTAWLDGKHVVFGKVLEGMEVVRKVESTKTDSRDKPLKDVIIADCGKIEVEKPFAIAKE
CypD, sequence (P30405 44-207 K175I): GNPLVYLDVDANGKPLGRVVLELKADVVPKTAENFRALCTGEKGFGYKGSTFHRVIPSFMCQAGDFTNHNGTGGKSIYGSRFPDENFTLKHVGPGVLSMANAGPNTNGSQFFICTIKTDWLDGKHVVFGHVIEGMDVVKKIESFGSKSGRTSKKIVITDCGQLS

SMILES: C/C=C/C[C@@H](C)[C@@H](O)[C@H]1C(=O)N[C@@H](CC)C(=O)N(C)[C@H](C)C(=O)N(CC)[C@@H](C(C)C)C(=O)N[C@@H](C(C)C)C(=O)N(C)[C@@H](CC(C)C)C(=O)N[C@@H](C)C(=O)N[C@H](C)C(=O)N(C)[C@@H](CC(C)C)C(=O)N(C)[C@@H](CC(C)C)C(=O)N(C)[C@@H](C(C)C)C(=O)N1C [Alisporivir, alisporivir, reference compound]
EC50 (HCoV-229E; Human coronavirus 229E): 2.6 ± 0.6 µM
IC50 (CypB): 0.04 ± 0.012 µM
IC50 (CypD): 0.03 ± 0.005 µM
CC50 (in vitro [1]): 32.3 ± 22 µM
CC50 at 72 h (in vitro [2]): 9.7 ± 2.2 µM
EC50 (HCV genotype 1b replicon; [7]): 0.01 ± 0.0007 µM
EC50 (HCV genotype 1b replicon; Hepatitis C virus, Huh-7, read-out: EC50 HCV (WT) subgenomic replicon): 0.04 ± 0.0005 µM
IC50 (CypA): 0.07 ± 0.003 µM

SMILES: Nc1ccc(CNC(=O)NCC(=O)N2CCCC2)cc1 [Compound 23]
IC50 [3]: > 500 µM
IC50 (CypB; [8]): > 500 µM
IC50 (CypD; [9]): > 500 µM
IC50 (CypA): > 500 µM

SMILES: COc1ccccc1C1CCCN1C(=O)CNC(=O)NCc1ccc(N)cc1 (stereo not drawn) [Compound 24]
IC50 (CypB; [8]): 1.2 ± 0.1 µM
IC50 (CypD; [9]): 11.4 ± 3 µM
IC50 (CypA): 2.8 ± 0.6 µM

SMILES: Nc1ccc(CNC(=O)NCC(=O)N2CCCC2c2ccccc2Cl)cc1 (stereo not drawn) [Compound 25]
IC50 (CypB; [8]): 3.7 ± 1.4 µM
IC50 (CypD; [9]): 6.2 ± 2.3 µM
IC50 (CypA): 3.4 ± 0.7 µM

SMILES: Nc1ccc(CNC(=O)NCC(=O)N2CCCC2c2ccccc2Br)cc1 (stereo not drawn) [Compound 26]
EC50 (HCoV-229E): 66.3 ± 24 µM
CC50 (Huh7 cells): > 100 µM
CC50 (MRC5 cells): > 100 µM
EC50 (HCV genotype 1b replicon; [10]): 6 ± 0.7 µM
EC50 (HIV-IIIb): 3.6 ± 0.8 µM
CC50 (MT4 cells): > 53 µM

SMILES: CSc1ccccc1C1CCCN1C(=O)CNC(=O)NCc1ccc(N)cc1 (stereo not drawn) [Compound 27]
EC50 (HCoV-229E): 34.6 ± 18.3 µM
CC50 (Huh7 cells): > 100 µM
CC50 (MRC5 cells): > 100 µM
IC50 (CypD; [9]): 0.6 ± 0.1 µM
EC50 (HCV genotype 1b replicon; [10]): 2.7 ± 2.5 µM
EC50 (HCV genotype 1b replicon; [11]): 5.6 ± 0.7 µM
IC50 (CypA): 0.4 ± 0.1 µM
EC50 (HIV-IIIb): 6.8 ± 2.3 µM
CC50 (MT4 cells): > 53 µM

SMILES: Nc1ccc(CNC(=O)NCC(=O)N2CCCC2c2cccc3ccccc23)cc1 (stereo not drawn) [Compound 28]
IC50 (CypB; [8]): 1.8 ± 0.9 µM
IC50 (CypD; [9]): 1.4 ± 0.2 µM
IC50 (CypA): 1.5 ± 0.5 µM

SMILES: CSc1ccccc1C1CCCN1C(=O)C(NC(=O)NCc1ccc(N)cc1)c1ccccc1 (stereo not drawn) [Compound 31]
inhibition of calcineurin phosphatase activity (calcineurin): no inhibition was observed
EC50 (HCoV-229E): 44.7 ± 2.2 µM
CC50 (Huh7 cells): > 100 µM
CC50 (MRC5 cells): > 100 µM
mPTP opening (mPTP): inhibits mPTP opening
IC50 (CypB; [8]): 0.08 ± 0.04 µM
IC50 (CypD; [9]): 0.2 ± 0.08 µM
EC50 fold higher than the EC50 of alisporivir (HCV genotype 1b replicon; HCV genotype 1b replicon, Huh7 cells): ~40
EC50 (HCV genotype 1b replicon; [10]): 0.4 ± 0.3 µM
EC50 (HCV genotype 1b replicon; [11]): 0.3 ± 0.16 µM
EC50 [4]: > 20 µM
IC50 (CypA): 0.1 ± 0.07 µM

SMILES: CCOC(=O)CNC(=O)NC1CCc2ccc(N)cc21 (stereo not drawn) [Compound 32]
EC50 (HCoV-229E; Human coronavirus 229E): 71.5 ± 4.3 µM
CC50 [5]: > 100 µM
CC50 at 72 h [6]: > 100 µM
IC50 (CypB; [8]): 8.7 ± 1.5 µM
IC50 (CypD): 12.8 ± 2.5 µM
EC50 (HCV genotype 1b replicon; [7]): 8 ± 1.3 µM
IC50 (CypA): 7.4 ± 6.8 µM

% CypD inhibition (%I) at 1 mM (CypD): 40%
LE (ligand efficiency) (CypD): < 0.29
SMILES: COC(=O)CS(=O)(=O)c1ccccc1 [Fragment 1]

% CypD inhibition (%I) at 1 mM (CypD): 2%
SMILES: O=S1(=O)CC=CC1 [Fragment 2]

% CypD inhibition (%I) at 1 mM (CypD): 32%
LE (ligand efficiency) (CypD): < 0.42
SMILES: Nc1ccc(C(=O)O)cc1 [Fragment 3]

% CypD inhibition (%I) at 1 mM (CypD): 32%
LE (ligand efficiency) (CypD): < 0.46
SMILES: ON=Cc1ccccc1 [Fragment 8]

% CypD inhibition (%I) at 1 mM (CypD): 39%
LE (ligand efficiency) (CypD): < 0.24
SMILES: Nc1ccc(S(=O)(=O)NC(=O)c2ccccc2)cc1 [Fragment 9]

SMILES: O=CN1CCCC1 [Fragment 13]
IC50 (CypB; [8]): > 5000 µM
IC50 (CypD; [9]): > 5000 µM
IC50 (CypA): > 5000 µM

SMILES: O=C(NC(=O)c1c(F)cccc1Cl)NC1c2ccccc2-c2ccccc21 [TMN-355, reference compound]
CC50 (Huh7 cells): 4.48 ± 2.1 µM
CC50 (MRC5 cells): 1.04 ± 0.46 µM
IC50 (CypB; [8]): > 100 µM
IC50 (CypD; [9]): > 100 µM
EC50 (HCV genotype 1b replicon; [10]): > 50 µM

Source: PMC5036131, “Fragment-based discovery of a new family of non-peptidic small-molecule cyclophilin inhibitors with potent antiviral activities” (Nature Communications, 2016)
